These results are taken from US20230339836A1, “METHOD FOR PRODUCING REDUCED COENZYME Q10 FORM II CRYSTALS” (KANEKA CORPORATION, priority 2020, published 2023).

Data set [1] can be described thus: Solubility (saturated concentration) of reduced coenzyme Q10 crystals in hydrous ethanol, HPLC of filtered liquid phase. In kind it is physicochemical. The method, then: The dissolved concentration of reduced coenzyme Q10 in a liquid phase was measured by analyze a liquid phase sample by high performance liquid chromatography under the following conditions.
• Column: SYMMETRY C18 (manufactured by Waters); 250 mm (length), 4.6 mm (inner diameter) • Mobile phase: C2H5OH:CH3OH=4:3 (v:v) • Detection wavelength: 210 nm • Flow rate: 1 ml/min • Retention time of reduced coenzyme Q10: 9.1 min.
The solubility (saturated concentration) (% by weight) of each of a reduced coenzyme Q10 Form I-type crystal (Form I-type crystal) and a reduced coenzyme Q10 Form II-type crystal (Form II-type crystal) in hydrous ethanol with an ethanol concentration per total volume of 99.5% (v/v), 95% (v/v), and 90% (v/v) at temperatures of 298.15K (25° C.), 303.15K (30° C.), 308.15K (35° C.), and 313.15K (40° C.) was obtained.
The solubility was measured by the following procedures.
To approximately 30 g of each hydrous ethanol, approximately 10 g of a Form I-type crystal or a Form II-type crystal was added, the mixture was stirred under a nitrogen atmosphere and maintained for approximately 1 hour at temperatures of 25° C., 30° C., 35° C., and 40° C. Sampling was performed at each temperature and each sample was filtered quickly to obtain a liquid phase sample. Each sample was analyzed under the above HPLC conditions and the solubility was calculated.

The nature of data set [2]: Saturated concentration calculated from Expressions 3 to 8 for 99.5% (v/v) ethanol. In kind it is physicochemical. To be noted: calculated by Expressions 7 and 8, natural logarithm. The text has this: Further, the ethanol concentration of 99.5% (v/v) was assigned to Z of Expressions 3, 4, 5, and 6 to obtain the values of the constants AI, BI, AII, and BII. Using these constants, the Log CI of the saturated concentration CI (% by weight) of the Form I-type crystal and the Log CII of the saturated concentration CII (% by weight) of the Form II-type crystal were obtained at each temperature (converting the unit to Kelvin) shown in Table 5 according to Expressions 7 and 8 above.

For data set [3] the following is noted: compared with Form I-type crystal; Patent Literature 4; cited from earlier work.
For data set [4] the following is noted: compared with oxidized coenzyme Q10; cited from earlier work.
Setting [5] is: 90% (v/v) ethanol, 298.15 K (25° C.).
Where [6] appears, read: 90% (v/v) ethanol, 303.15 K (30° C.).
Where [7] appears, read: 90% (v/v) ethanol, 308.15 K (35° C.).
[8] abbreviates: 90% (v/v) ethanol, 313.15 K (40° C.).
The mark [9] stands for this setting: 95% (v/v) ethanol, 298.15 K (25° C.).
Where [10] appears, read: 95% (v/v) ethanol, 303.15 K (30° C.).
The mark [11] stands for this setting: 95% (v/v) ethanol, 308.15 K (35° C.).
Setting [12] is: 95% (v/v) ethanol, 313.15 K (40° C.).
[13] abbreviates: 99.5% (v/v) ethanol, 298.15 K (25° C.).
[14] abbreviates: 99.5% (v/v) ethanol, 303.15 K (30° C.).
[15] abbreviates: 99.5% (v/v) ethanol, 308.15 K (35° C.).
Where [16] appears, read: 99.5% (v/v) ethanol, 313.15 K (40° C.).

The structures appear in SMILES notation.

Take `COc1c(O)c(C)c(C/C=C(\C)CC/C=C(\C)CC/C=C(\C)CC/C=C(\C)CC/C=C(\C)CC/C=C(\C)CC/C=C(\C)CC/C=C(\C)CC/C=C(\C)CCC=C(C)C)c(O)c1OC` [Form II, reduced coenzyme Q10]: the Solubility in data set [1] (setting [5]) is 0.10 % by weight; in data set [1] (setting [6]), 0.13 % by weight; in data set [1] (setting [7]), 0.23 % by weight; in data set [1] (setting [8]), 0.41 % by weight; in data set [1] (setting [9]) it was 0.37 % by weight; in data set [1] (setting [10]), 0.52 % by weight. Also, the Solubility in data set [1] (setting [11]) is 0.86 % by weight; in data set [1] (setting [12]), 2.81 % by weight; in data set [1] (setting [13]), 1.22 % by weight; in data set [1] (setting [14]), 2.32 % by weight; in data set [1] (setting [15]), 5.51 % by weight; in data set [1] (setting [16]) it was 17.9 % by weight. Moreover, the “Log of saturated concentration (% by weight)” value in data set [2] (10° C.) is listed as −3.858; in data set [2] (20° C.), −2.145; in data set [2] (25° C.) it was −1.288; in data set [2] (30° C.) it was −0.432; in data set [2] (35° C.), 0.425. Also, the “Stability of crystal form” value in data set [3] is reported as “much more stable than the conventional reduced coenzyme Q10”.
As to `COc1c(O)c(C)c(C/C=C(\C)CC/C=C(\C)CC/C=C(\C)CC/C=C(\C)CC/C=C(\C)CC/C=C(\C)CC/C=C(\C)CC/C=C(\C)CC/C=C(\C)CCC=C(C)C)c(O)c1OC` [Form I, reduced coenzyme Q10], the Solubility in data set [1] (setting [5]) came out at 0.13 % by weight; in data set [1] (setting [6]) it was 0.18 % by weight; in data set [1] (setting [7]) it was 0.29 % by weight; in data set [1] (setting [8]), 0.88 % by weight; in data set [1] (setting [9]) it was 0.65 % by weight; in data set [1] (setting [10]), 1.01 % by weight. The Solubility in data set [1] (setting [11]) is reported as 2.33 % by weight; in data set [1] (setting [12]), 8.98 % by weight; in data set [1] (setting [13]), 2.01 % by weight; in data set [1] (setting [14]) it was 4.53 % by weight; in data set [1] (setting [15]) it was 12.6 % by weight; in data set [1] (setting [16]), 46.3 % by weight. Besides, in data set [1] (hydrous ethanol with any concentration (99.5, 95, 90% v/v)), the “Solubility compared between crystal forms” value was “higher than that of the Form II-type crystal”. For the same compound, the “Log of saturated concentration (% by weight)” value is −2.686 in data set [2] (10° C.); −0.584 in data set [2] (20° C.); 0.467 in data set [2] (25° C.); 1.517 in data set [2] (30° C.); 2.568 in data set [2] (35° C.).
Take `COc1c(O)c(C)c(C/C=C(\C)CC/C=C(\C)CC/C=C(\C)CC/C=C(\C)CC/C=C(\C)CC/C=C(\C)CC/C=C(\C)CC/C=C(\C)CC/C=C(\C)CCC=C(C)C)c(O)c1OC` [reduced coenzyme Q10]: the Oral absorbability entry in data set [4] was “higher oral absorbability than that of oxidized coenzyme Q10”.
